Assay results: ChEMBL document CHEMBL1125556, “Fluoroquinolones: relationships between structural variations, mammalian cell cytotoxicity, and antimicrobial activity” (J Med Chem, 1992)
Converted amounts (≈) assume the structure as drawn.

How the values were obtained:
[1] = test system: V79; experiment: Mammalian cell cytotoxicity test in chinese hamster V79 cells (clonogenic cytotoxicity); format: functional, cell-based; settings: Cricetulus griseus, V79; read-out: IC50
[2] = Antibacterial activity against five Gram-negative bacteria; format: functional; settings: read-out: MIC

MIC [2]: 0.09 µg/mL (≈ 0.223 µM)
Structure (SMILES): NC1CCN(c2nc3c(cc2F)c(=O)c(C(=O)O)cn3-c2ccc(F)cc2F)C1 (configuration not stated) [TOSUFLOXACIN]
IC50 [1]: 128 µg/mL (≈ 317 µM)
